Patent US20230277575A1 (priority 2020, published 2023)

How the values were obtained:
SARS-CoV-2 [1] = assay: SARS-CoV-2 virus production in Vero E6 cells (TCID50); assay type: cell-based; conditions: for antiviral activity (conclusion, in words): SARS-CoV-2; for IC50: Severe acute respiratory syndrome coronavirus 2, Vero C1008, TCID50, Vero E6 cells, MOI 10^−3; for virus production (in words): increased drug concentration, dose response
Procedure: (§1) Seeding of cells and treatment with compound of interest were performed with each compound in triplicate at 5 concentrations, including negative and positive controls. Infection with SARS-CoV-2 was performed at one MOI (multiplicity of infection). Viral particles were recovered in the supernatant after incubation and quantification using TCID50 (tissue culture infectious dose 50%) and RT-PCR was performed. Toxicity measurement of compounds was made on separate cell lines. D1: cell seeding on 96 wells plate, Vero E6 cells. Growth conditions: medium DMEM high glucose (Dutsher L0104-500, lot MS008A) D2: dilution of compounds was carried out in a mix of 100% DMSO diluted to 50% in PBS (NACL-2) or in PBS at […] to avoid solubility issues of some compounds. Compounds were tested at 5 concentrations, from 10^−4 M to 10^−8 M by serial tenfold dilutions. Infection with SARS-CoV-2 clinical strain was performed to MOI 10^−3. D3: viral titers were determined by TCID50 method and calculated by the Spearman & Kärber algorithm. RT-qPCR on gene E of SARS-CoV-2 was determined by Taqman One-Step RT-qPCR. Infection process: at T0 infection was performed with SARS-CoV-2 MOI 10^−3 (0.001). At T0+1 h virus was removed and the plates were washed with PBS (2×1 mL), 1 mL medium was then added with compound from 100 μM to 10 nM. A 24 h incubation step was carried out. At T0+25 h, 500 μL of supernatant was recovered and TCID50 processing and RT-qPCR were performed. Following 4 additional days of incubation the endpoint was obtained and TCI D50 reading and calculation was performed.

SARS-CoV-2 [2] = assay: SARS-CoV-2 genome copy number by RT-qPCR on gene E (Vero E6 cells); assay type: cell-based; conditions: for genome copy number (in words): increased drug concentration
Procedure: as §1

in vitro = conditions: human
[3] = Toxicity testing on Vero cells; conditions: African green monkey, Vero cells, CC50, Vero cells, 24 h post treatment
Vero cells = assay: Toxicity testing on Vero cells; conditions: for CC50: Vero cells, 24 h post treatment

Row | SMILES | antiviral activity (conclusion, in words) (SARS-CoV-2 [1]) | IC50 (SARS-CoV-2 [1]) [µM] | log decrease in viral production (SARS-CoV-2 [1]; at 10 μM) [log] | toxicity observed in virus production test (SARS-CoV-2 [1]; at 100 μM) | virus production (in words) (SARS-CoV-2 [1]) | IC50 times lower than that of Remdesivir (SARS-CoV-2 [1]; virus production IC50) [times] | IC50 (SARS-CoV-2 [2]; Severe acute respiratory syndrome coronavirus 2, Vero C1008, RT-qPCR on gene E, Vero E6 cells) [µM] | log decrease in copy genome (SARS-CoV-2 [2]; at 10 μM) [log] | toxicity observed in RT-qPCR test (SARS-CoV-2 [2]; at 100 μM) | genome copy number (in words) (SARS-CoV-2 [2]) | CC50 (in vitro) [µM] | CC50 at 24 h [3] [µM] | CC50 (Vero cells; listed as clitocine) [µM] | toxicity on Vero cells (in words) (Vero cells; depending on the concentration used) | IC50 times lower than that of NACI-1 (SARS-CoV-2 [1]; virus production IC50) [times] | CC50 (Vero cells) [µM]
1 | Nc1ncnc(N[C@@H]2O[C@H](CO)[C@@H](O)[C@H]2O)c1[N+](=O)[O-] [Compound 1, (2R,3R,4S,5R)-2-[(6-amino-5-nitropyrimidin-4-yl)amino]-5-(hydroxymethyl)oxolane-3,4-diol] | Potent antiviral activity | 0.188 | 3 | some toxicity was observed | decrease significantly | 5 | 0.176 | ~2 | some toxicity was observed | decrease significantly | 108 | 3.09 | 3.09 | some degree of toxicity |  | 
2 | NC(=O)c1ncn([C@@H]2O[C@H](CO)[C@@H](O)[C@H]2O)c1O [Mizoribine, 1-[(2R,3R,4S,5R)-3,4-dihydroxy-5-(hydroxymethyl)oxolan-2-yl]-5-hydroxy-1H-imidazole-4-carboxamide] | Potent antiviral activity | 0.66 |  |  | decrease significantly |  |  |  |  | does not impact | 850 | 191 |  |  | 3 | 191
